How the values were obtained:
[1] = reported in Brandon et al. 2007; cited from earlier work
[2] = tested on: other PDE isoforms; conditions: reported in Brandon et al. 2007; cited from earlier work
[3] = biological target: Rhesus PDE2A3 (Macaca mulatta, UniProt B3VTJ2); test: IMAP fluorescence polarization assay, rhesus PDE2A3 lysate from transfected AD293 cells; type: biochemical, rhesus macaque; conditions: FAM-labeled cAMP 50 nM, activator cGMP 1 uM; read-out: Rhesus PDE2 Ki
Experimental: The activity of the compounds in accordance with the present invention as PDE2 inhibitors may be readily determined using a fluorescence polarization (FP) methodology (Huang, W., et al., J. Biomol Screen, 2002, 7: 215).
In a typical experiment the PDE2 inhibitory activity of the compounds of the present invention was determined in accordance with the following experimental method. Rhesus PDE2A3 was amplified from rhesus macaque brain cDNA (Biochain Institute, Hayward, Calif.) using primers based on human PDE2A sequence (accession NM_002599.3) where the forward primer containing a Kozak consensus was 5′-[…]-3′ and the reverse primer was 5′-[…]-3′. Amplification with Easy-A High-Fidelity PCR cloning enzyme (Stratagene, La Jolla, Calif.) was 95° C. for 2 minutes followed by thirty three cycles of 95° C. for 40 seconds, 52° C. for 30 seconds, and 72° C. for 2 minutes 48 seconds. Final extension was 72° C. for 7 minutes. The PCR product was TA cloned into pcDNA3.3-TOPO (Invitrogen, Carlsbad, Calif.) according to standard protocol. A consensus sequence was developed from multiple clones and then deposited into GenBank (EU812167). AD293 cells (Stratagene, La Jolla, Calif.) with 70-80% confluency were transiently transfected with rhesus PDE2A3/pcDNA3.3-TOPO using Lipofectamine 2000 according to manufacturer specifications (Invitrogen, Carlsbad, Calif.). Cells were harvested 48 hours post-transfection and lysed by sonication (setting 3, 10×5 sec pulses) in a buffer containing 20 mM HEPES pH 7.4, 1 mM EDTA and Complete Protease Inhibitor Cocktail Tablets (Roche, Indianapolis, Ind.). Lysate was collected by centrifugation at 75,000×g for 20 minutes at 4° C. and supernatant utilized for evaluation of PDE2 activity. The fluorescence polarization assay for cyclic nucleotide phosphodiesterases was performed using an IMAP® FP kit supplied by Molecular Devices, Sunnyvale, Calif. (product # R8139). […] Assays were performed at room temperature in 384-well microtiter plates with an incubation volume of 20.2 μL. Solutions of test compounds were prepared in DMSO and serially diluted with DMSO to yield 8 μL of each of 10 solutions differing by 3-fold in concentration, at 32 serial dilutions per plate. […] 0% of inhibition is determined by using DMSO (1% final concentrations).
A Labcyte Echo 555 (Labcyte, Sunnyvale, Calif.) is used to dispense 200 nL from each well of the titration plate to the 384 well assay plate. Ten microliters of a solution of enzyme (1/2000 final dilution from aliquots; sufficient to produce 20% substrate conversion) was added to the assay plate. Next 10 uL of a separate solution of the substrate FAM-labeled cAMP (50 nM final concentration product # R7506 from Molecular Devices) and the activator cGMP (1 uM final concentration), prepared in the assay buffer (10 mM Tris HCl, pH 7.2, 10 mM MgCl2, 0.05% NaN3 0.01% Tween-20, and 1 mM DTT) was added to the assay plate and shaken to mix. The reaction is allowed to proceed at room temperature for 60 minutes. A binding solution is then made from the kit components, comprised of 80% Solution A, 20% Solution B and binding reagent at a volume of 1/600 the total binding solution. The enzymatic reaction is stopped by addition of 60 μL of the binding solution to each well of the assay plates and the plates are sealed and shaken for 30 seconds. The plate was incubated at room temperature for at least one hour prior to determining the fluorescence polarization (FP). The parallel and perpendicular fluorescence of each well of the plate was measured using a Tecan Genios Pro plate reader (Tecan, Switzerland) or Perkin Elmer EnVision™ plate reader (Waltham, Mass.). Fluorescence polarization (mP) was calculated from the parallel (S) and perpendicular (P) fluorescence of each sample well and the analogous values for the median control well, containing only substrate (So and Po), using the following equation: Polarization (mP)=1000*(S/So−P/Po)/(S/So+P/Po).

[4] = biological target: human PDE2A1 (Homo sapiens (Human), UniProt O00408); test: IMAP fluorescence polarization assay, human PDE2A1 (PDE selectivity panel); type: biochemical; conditions: FAM cAMP 50 nM with 1000 nM cGMP
human PDE2A1, sequence (O00408 other isoform, or with tags, fused parts or gaps): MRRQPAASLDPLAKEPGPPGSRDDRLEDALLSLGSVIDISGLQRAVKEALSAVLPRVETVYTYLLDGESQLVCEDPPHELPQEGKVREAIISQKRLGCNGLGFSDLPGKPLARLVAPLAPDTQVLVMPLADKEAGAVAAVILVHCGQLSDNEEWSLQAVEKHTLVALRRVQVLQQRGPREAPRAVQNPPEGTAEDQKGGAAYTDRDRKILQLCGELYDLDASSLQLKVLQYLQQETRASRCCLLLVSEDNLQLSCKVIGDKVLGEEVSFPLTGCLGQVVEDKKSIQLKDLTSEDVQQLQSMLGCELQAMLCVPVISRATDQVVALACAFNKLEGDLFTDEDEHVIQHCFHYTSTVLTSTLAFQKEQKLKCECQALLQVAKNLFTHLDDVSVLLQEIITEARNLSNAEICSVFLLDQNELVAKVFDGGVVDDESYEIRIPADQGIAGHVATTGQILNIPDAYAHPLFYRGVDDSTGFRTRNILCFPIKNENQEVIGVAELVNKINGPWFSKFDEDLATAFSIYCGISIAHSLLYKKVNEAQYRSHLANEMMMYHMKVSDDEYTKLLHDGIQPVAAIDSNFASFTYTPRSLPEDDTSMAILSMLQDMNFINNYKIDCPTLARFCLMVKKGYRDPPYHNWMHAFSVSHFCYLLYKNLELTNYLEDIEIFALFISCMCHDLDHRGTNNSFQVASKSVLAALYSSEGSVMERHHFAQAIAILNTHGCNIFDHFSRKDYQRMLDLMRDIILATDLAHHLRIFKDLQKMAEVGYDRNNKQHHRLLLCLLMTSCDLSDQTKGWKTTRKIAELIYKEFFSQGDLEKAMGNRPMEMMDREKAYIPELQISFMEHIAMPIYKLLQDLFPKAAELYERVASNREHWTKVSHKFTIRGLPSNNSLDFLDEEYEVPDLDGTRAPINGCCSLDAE
Method in brief: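 GST-tagged human PDE2A1 from insect cells; enzyme set to ~20% conversion of 50 nM FAM-cAMP with 1000 nM cGMP, 60 min at room temperature in pH 7.2 Tris/MgCl2/DTT buffer, ten 3-fold compound dilutions. IMAP FP read, apparent Ki derived using apparent KM 10,000 nM.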

Rhesus PDE2A3, sequence (B3VTJ2 1-941): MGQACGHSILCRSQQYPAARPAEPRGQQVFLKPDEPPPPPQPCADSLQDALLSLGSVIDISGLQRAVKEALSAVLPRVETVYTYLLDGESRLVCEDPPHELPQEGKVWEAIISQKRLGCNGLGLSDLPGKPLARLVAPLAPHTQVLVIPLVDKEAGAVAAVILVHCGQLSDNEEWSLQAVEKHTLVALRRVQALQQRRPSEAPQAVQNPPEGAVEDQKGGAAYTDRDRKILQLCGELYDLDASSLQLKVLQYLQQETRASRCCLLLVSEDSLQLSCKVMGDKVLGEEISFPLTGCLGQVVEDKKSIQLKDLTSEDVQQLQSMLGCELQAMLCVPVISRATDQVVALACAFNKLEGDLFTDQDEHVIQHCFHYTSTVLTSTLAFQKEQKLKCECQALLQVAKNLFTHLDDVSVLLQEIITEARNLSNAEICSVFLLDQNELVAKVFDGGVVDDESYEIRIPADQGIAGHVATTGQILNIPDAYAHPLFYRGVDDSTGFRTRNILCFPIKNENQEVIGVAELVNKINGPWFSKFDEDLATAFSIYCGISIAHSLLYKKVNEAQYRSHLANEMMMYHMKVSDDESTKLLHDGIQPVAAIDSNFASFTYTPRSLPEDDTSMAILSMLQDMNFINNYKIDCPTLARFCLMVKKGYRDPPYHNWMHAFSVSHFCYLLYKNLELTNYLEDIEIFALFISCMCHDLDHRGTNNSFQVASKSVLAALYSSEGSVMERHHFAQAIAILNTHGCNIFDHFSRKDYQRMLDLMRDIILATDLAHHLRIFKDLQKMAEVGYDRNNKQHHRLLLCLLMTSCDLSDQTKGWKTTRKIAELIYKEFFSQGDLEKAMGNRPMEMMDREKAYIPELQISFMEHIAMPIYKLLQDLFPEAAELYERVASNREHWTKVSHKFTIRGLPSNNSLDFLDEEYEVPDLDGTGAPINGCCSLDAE

| Structure (SMILES) | Ki [3] | Ki [4] | brain penetration [1] | potency at other PDE isoforms [2] |
| --- | --- | --- | --- | --- |
| COc1ccc(Cc2nn3c([C@@H](CCCc4ccccc4)[C@@H](C)O)nc(C)c3c(=O)[nH]2)cc1OC [Bay 60-7550] | – | – | limited brain penetration | significant potency |
| Cc1nc(-c2nnn3c2CCC[C@]3(C)c2ccc(C(F)(F)F)cc2Cl)cc(=O)[nH]1 (single isomer, unassigned) [Example 87] | 1.8 nM | 1.2 nM | – | – |
| CCc1ccc(C(C)n2cc(-c3cc(=O)[nH]c(C)n3)nn2)c(Cl)c1 (single isomer, unassigned) [Example 19, (R)- or (S)-6-(1-(1-(2-chloro-4-ethylphenyl)ethyl)-1H-1,2,3-triazol-4-yl)-2-methylpyrimidin-4(3H)-one] | 3.4 nM | 2.1 nM | – | – |
| CC(c1ccc(C(F)(F)F)cc1F)n1cc(-c2cc(=O)[nH]c(CC3CC3)n2)nn1 (stereo not drawn) [Example 14, 2-(cyclopropylmethyl)-6-(1-(1-(2-fluoro-4-(trifluoromethyl)phenyl)ethyl)-1H-1,2,3-triazol-4-yl)pyrimidin-4(3H)-one] | 24.9 nM | 20.9 nM | – | – |
| Cc1nc(-c2nnc(C(C)c3ccc(C(F)(F)F)cc3)[nH]2)cc(=O)[nH]1 (stereo not drawn) [Example 60, 2-Methyl-6-(5-(1-(4-(trifluoromethyl)phenyl)ethyl)-4H-1,2,4-triazol-3-yl)pyrimidin-4(3H)-one] | 204 nM | – | – | – |
| Cc1nc(-c2cn(C3(c4ccc(C(F)(F)F)cc4Cl)CCC3)nn2)cc(=O)[nH]1 [Example 29, 6-(1-(1-(2-Chloro-4-(trifluoromethyl)phenyl)cyclobutyl)-1H-1,2,3-triazol-4-yl)-2-methylpyrimidin-4(3H)-one] | 0.63 nM | 0.53 nM | – | – |
| Cc1nc(-c2cn(C(C)c3ccc(S(F)(F)(F)(F)F)cc3)nn2)cc(=O)[nH]1 (stereo not drawn) [Example 16, 2-methyl-6-(1-(1-(4-(pentafluorosulfanyl)phenyl)ethyl)-1H-1,2,3-triazol-4-yl)pyrimidin-4(3H)-one] | 39.4 nM | 37.8 nM | – | – |
| Cc1nc(-c2nnn3c2CCC3(C)c2ccc(C(F)(F)F)cc2F)cc(=O)[nH]1 (single isomer, unassigned) [Example 97, (R)- or (S)-6-(6-(2-Fluoro-4-(trifluoromethyl)phenyl)-6-methyl-5,6-dihydro-4H-pyrolo[1,2-c][1,2,3]triazol-3-yl)-2-methylpyrimidin-4(3H)-one] | 1.3 nM | 1.5 nM | – | – |
| CC(c1ccc(C(F)(F)F)cc1F)n1cc(-c2cc(=O)[nH]c(Cc3ccccc3)n2)nn1 (stereo not drawn) [Example 12] | 8.9 nM | 8.4 nM | – | – |
| COc1ccc(Cc2nc(-c3nnn4c3CCC[C@]4(C)c3ccc(C(F)(F)F)cc3F)cc(=O)[nH]2)cc1 (single isomer, unassigned) [Example 89] | 0.63 nM | 0.4 nM | – | – |
| Cc1nc(-c2nnc3n2CCC[C@]3(C)c2ccc(C(F)(F)F)cc2F)cc(=O)[nH]1 (single isomer, unassigned) [Example 81] | 1.7 nM | 0.93 nM | – | – |
| CCc1ccc(C(C)(C)n2cc(-c3cc(=O)[nH]c(C)n3)nn2)c(Cl)c1 [Example 32, 6-(1-(2-(2-chloro-4-ethylphenyl)propan-2-yl)-1H-1,2,3-triazol-4-yl)-2-methylpyrimidin-4(3H)-one] | 2.1 nM | 1.6 nM | – | – |

Further lines, with some results ahead:

| Ki [3] | Ki [4] | Structure (SMILES) | brain penetration [1] | potency at other PDE isoforms [2] |
| --- | --- | --- | --- | --- |
| 9 nM | 7 nM | Cc1nc(-c2cn(C(C)c3ccc(C(F)(F)F)cc3F)nn2)cc(=O)[nH]1 (single isomer, unassigned) [Example 28, (S)- or (R)-6-(1-(1-(2-fluoro-4-(trifluoromethyl)phenyl)ethyl)-1H-1,2,3-triazol-4-yl)-2-methylpyrimidin-4(3H)-one] | – | – |
| 3.9 nM | 2.6 nM | Cc1nc(-c2cn(C(C)c3ccc(C(F)(F)F)c(F)c3F)nn2)cc(=O)[nH]1 (single isomer, unassigned) [Example 21, (R)- or (S)-6-(1-(1-(2,3-difluoro-4-(trifluoromethyl)phenyl)ethyl)-1H-1,2,3-triazol-4-yl)-2-methylpyrimidin-4(3H)-one] | – | – |
| 54.8 nM | 47 nM | Cc1nc(-c2cn(C(C)c3ccc(C(F)(F)F)cc3)nn2)cc(=O)[nH]1 (single isomer, unassigned) [Example 18, (S)- or (R)-2-methyl-6-(1-(1-(4-(trifluoromethyl)phenyl)ethyl)-1H-1,2,3-triazol-4-yl) pyrimidin-4(3H)-one] | – | – |
| 9.4 nM | 6.9 nM | Cc1nc(-c2cn([C@H](C)c3ccc(C(F)(F)F)cc3C)nn2)cc(=O)[nH]1 (single isomer, unassigned) [Example 9] | – | – |
| 6.5 nM | 4.7 nM | CC/C=C/c1nc(-c2cn(C(C)c3ccc(C(F)(F)F)cc3F)nn2)cc(=O)[nH]1 (stereo not drawn) [Example 15, (E)-2-(but-1-enyl)-6-(1-(1-(2-fluoro-4-(trifluoromethyl)phenyl)ethyl)-1H-1,2,3-triazol-4-yl)pyrimidin-4(3H)-one] | – | – |
| 98.9 nM | 76.8 nM | Cc1nc(-c2cn(C(C)c3ccc(OC(F)(F)F)cc3F)nn2)cc(=O)[nH]1 (stereo not drawn) [Example 13, 6-(1-(1-(2-fluoro-4-(trifluoromethoxy)phenyl)ethyl)-1H-1,2,3-triazol-4-yl)-2-methylpyrimidin-4(3H)-one] | – | – |
| 50.4 nM | 55.8 nM | Cc1nc(-c2cn(C(C)c3ccc(OC(F)(F)F)cc3)nn2)cc(=O)[nH]1 (stereo not drawn) [Example 11, 2-methyl-6-(1-(1-(4-(trifluoromethoxy)phenyl)ethyl)-1H-1,2,3-triazol-4-yl) pyrimidin-4(3H)-one] | – | – |
| 44.7 nM | 36.2 nM | Cc1nc(-c2cn(C(C)c3ccc(C(F)(F)F)cc3)nn2)cc(=O)[nH]1 (single isomer, unassigned) [Example 17, (R)- or (S)-2-methyl-6-(1-(1-(4-(trifluoromethyl)phenyl)ethyl)-1H-1,2,3-triazol-4-yl) pyrimidin-4(3H)-one] | – | – |
